Results on 2 molecules are retold here after ChEMBL document CHEMBL4311972, “Discovery of a benzothiophene-flavonol halting miltefosine and antimonial drug resistance in Leishmania parasites through the application of medicinal chemistry, screening and genomics” (Eur J Med Chem, 2019).

Series [1] deals with Leishmania infantum. The experiment in a line: Antileishmanial activity against Leishmania infantum amastigotes infected in Syrian hamster assessed as parasite load within spleen at 20 mg/kg/day, po for 10 days (reference value: 9151063.431 +/- 2606154.975/g). The format is functional.
The nature of series [2]: Toxicity in Syrian hamster infected with Leishmania infantum BCN150 promastigotes assessed as itching effect at 20 mg/kg/day, po for 10 days measured daily. In kind it is organism-based, Mesocricetus auratus. The following applies: in vivo, 240 h.
Series [3] can be described thus: Toxicity in Syrian hamster infected with Leishmania infantum BCN150 promastigotes assessed as effect on alkaline phosphatase level at 20 mg/kg/day, po for 10 days measured after the last treatment. The following applies: in vivo, 240 h. In kind it is organism-based, Mesocricetus auratus.
Series [4] in a line: Toxicity in Syrian hamster infected with Leishmania infantum BCN150 promastigotes assessed as spleen lesions at 20 mg/kg/day, po for 10 days. In kind it is organism-based, Mesocricetus auratus. The settings on record: in vivo, 240 h.
The test system of series [5] is Leishmania infantum. In words: Antileishmanial activity against Leishmania infantum amastigotes infected in Syrian hamster assessed as parasite load within liver at 20 mg/kg/day, po for 10 days (reference value: 5333333.333 +/- 3011090.611/g). The format is functional.
Series [6] in a line: Plasma concentration in syrian hamster infected with Leishmania infantum BCN150 promastigote at 20 mg/kg/day, po for 10 days. The format is ADME, organism-based, Mesocricetus auratus.
Series [7] in a line: Toxicity in Syrian hamster infected with Leishmania infantum BCN150 promastigotes assessed as effect on AST level at 20 mg/kg/day, po for 10 days measured after the last treatment. The format is organism-based, Mesocricetus auratus. The following applies: in vivo, 240 h.
The test system of series [8] is Leishmania infantum. The experiment in a line: Anti-leishmanial activity against Leishmania infantum BCN150 promastigotes infected in Syrian hamster assessed as decrease in anti-leishmanial IgG level at 20 mg/kg/day, po for 10 days by ELISA. In kind it is functional, organism-based.
Series [9] is described as follows: Toxicity in Syrian hamster infected with Leishmania infantum BCN150 promastigotes assessed as nausea at 20 mg/kg/day, po for 10 days measured daily. The format is organism-based, Mesocricetus auratus. The following applies: in vivo, 240 h.
Series [10] can be described thus: Toxicity in Syrian hamster infected with Leishmania infantum BCN150 promastigotes assessed as liver weight at 40 mg/kg/day, po for 10 days formulated with 50% v/v cyclodextrin (reference value: 5.892 +/- 0.446 g). The format is organism-based, Mesocricetus auratus. The settings on record: in vivo, 240 h.
Series [11] has as its system Leishmania donovani. The experiment in a line: Antileishmanial activity against antimony sensitive Leishmania donovani BPK091 promastigotes infected in C57BL/6 mouse bone marrow-derived macrophages assessed as reduction in parasite load at 10 uM treated with compound at 24 hrs post-infection measured after 72 hrs post infection by q-PCR analysis relative to control. The format is functional.

Series [12] deals with Leishmania infantum. In words: Antileishmanial activity against Leishmania infantum amastigotes infected in Syrian hamster assessed as parasite load within liver at 40 mg/kg/day, po for 10 days formulated with 8% v/v DMSO (reference value: 5333333.333 +/- 3011090.611/g). The format is functional.
Series [13] can be described thus: Toxicity in Syrian hamster infected with Leishmania infantum BCN150 promastigotes assessed as spleen lesions at 40 mg/kg/day, po for 10 days formulated with 8% v/v DMSO measured under necropsy. In kind it is organism-based, Mesocricetus auratus. The following applies: in vivo, 240 h.
The test system of series [14] is Leishmania donovani. The experiment in a line: Antileishmanial activity against Leishmania donovani 1SR promastigotes assessed as parasite growth at IC50 concentration incubated with compound for 3 days under selective pressure and selection cycle repeated 10 times for total of 33 days and measured at 3 to 33 days of selection relative to control. In kind it is functional.

Series [15] is described as follows: Toxicity in Syrian hamster infected with Leishmania infantum BCN150 promastigotes assessed as adverse effects at 20 mg/kg/every 12 hrs, po for 10 days formulated with 30% v/v cyclodextrin measured daily. The format is organism-based, Mesocricetus auratus. The following applies: in vivo.
A short description of series [16]: Toxicity in Syrian hamster infected with Leishmania infantum BCN150 promastigotes assessed as effect on plasma urea level at 40 mg/kg/day, po for 10 days formulated with 30 to 50% v/v cyclodextrin measured after the last treatment. In kind it is organism-based, Mesocricetus auratus. The following applies: in vivo, 240 h.
Series [17] in a line: Toxicity in Syrian hamster infected with Leishmania infantum BCN150 promastigotes assessed as effect on plasma creatinine level at 40 mg/kg/day, po for 10 days formulated with 8% v/v DMSO. The format is organism-based, Mesocricetus auratus. The following applies: in vivo, 240 h.
Series [18] can be described thus: Toxicity in Syrian hamster infected with Leishmania infantum BCN150 promastigotes assessed as effect on AST level at 40 mg/kg/day, po for 10 days formulated with 8% v/v DMSO measured after the last treatment. The format is organism-based, Mesocricetus auratus. The following applies: in vivo, 240 h.
Series [19] can be described thus: Plasma concentration in syrian hamster infected with Leishmania infantum BCN150 promastigote at 40 mg/kg/day, po for 10 days formulated with 50% v/v cyclodextrin. The format is ADME, organism-based, Mesocricetus auratus.
Series [20] relates to Leishmania donovani. The experiment in a line: Antileishmanial activity against antimony resistant Leishmania donovani BPK190 promastigotes infected in C57BL/6 mouse bone marrow-derived macrophages assessed as reduction in parasite load at 5 uM treated with compound at 24 hrs post-infection measured after 72 hrs post infection by q-PCR analysis relative to control. The format is functional.

Series [21] has as its target CYP2C9 (Homo sapiens, UniProt P11712). The experiment in a line: Inhibition of human microsomal CYP2C9 expressed in baculovirus infected insect cells at 10 uM using luciferin-H as substrate preincubated with enzyme/substrate mixture for 30 mins followed by further incubation with NADPH for 30 mins by CYP450 luciferase Glo assay relative to control. The format is ADME. The following applies: probe luciferin-H.

Series [22] in a line: AUC (total) in BALB/c mouse at 1 mg/kg, iv measured upto 72 hrs by snapshot method. In kind it is ADME, organism-based. Also on record: dose 1 mg/kg, time < 72 hr, route intravenous. The settings on record: in vivo.
Series [23] is described as follows: Stability of the compound in phosphate buffer assessed as compound abundance at 450 nm at 5 uM measured at pH 8 by fluorescence emission spectrum analysis. The settings on record: read-out: Stability. In kind it is physicochemical.
Series [24] can be described thus: Toxicity in Syrian hamster infected with Leishmania infantum BCN150 promastigotes assessed as effect on AST level at 40 mg/kg/day, po for 10 days formulated with 30 to 50% v/v cyclodextrin measured after the last treatment. In kind it is organism-based, Mesocricetus auratus. The following applies: in vivo, 240 h.
The target of series [25] is Albumin (Bos taurus, UniProt P02769). In words: Binding affinity to bovine serum albumin in phosphate buffer assessed as increase in emission intensity at 530-550 nm at 5 uM measured at pH 8 at albumin concentration of 12 uM by fluorescence emission spectrum analysis. The format is ADME. The following applies: cattle, isolated protein, pH 8, 5 µM.
Albumin, sequence (P02769 whole entry): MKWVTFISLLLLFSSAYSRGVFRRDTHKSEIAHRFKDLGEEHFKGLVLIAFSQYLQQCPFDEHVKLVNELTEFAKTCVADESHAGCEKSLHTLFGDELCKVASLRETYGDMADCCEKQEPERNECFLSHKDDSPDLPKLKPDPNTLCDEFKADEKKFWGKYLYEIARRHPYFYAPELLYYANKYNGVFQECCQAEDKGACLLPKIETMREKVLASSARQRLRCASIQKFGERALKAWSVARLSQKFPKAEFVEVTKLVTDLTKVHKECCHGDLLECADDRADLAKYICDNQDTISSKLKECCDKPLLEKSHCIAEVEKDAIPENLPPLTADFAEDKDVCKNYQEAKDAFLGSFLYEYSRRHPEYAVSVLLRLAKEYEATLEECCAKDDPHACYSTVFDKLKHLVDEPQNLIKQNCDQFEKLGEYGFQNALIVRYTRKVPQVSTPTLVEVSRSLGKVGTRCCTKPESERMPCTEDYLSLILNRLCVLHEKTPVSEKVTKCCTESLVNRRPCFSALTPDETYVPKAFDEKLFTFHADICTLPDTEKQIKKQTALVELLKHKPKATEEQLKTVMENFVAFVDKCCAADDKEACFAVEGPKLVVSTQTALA
Series [26] is described as follows: Toxicity in Syrian hamster infected with Leishmania infantum BCN150 promastigotes assessed as effect on ALT level at 40 mg/kg/day, po for 10 days formulated with 8% v/v DMSO measured after the last treatment. The format is organism-based, Mesocricetus auratus. The following applies: in vivo, 240 h.
Series [27] in a line: Cmax in BALB/c mouse at 20 mg/kg, po measured upto 72 hrs by snapshot method. In kind it is ADME, organism-based. Further details: dose 20 mg/kg, route oral. The following applies: in vivo.
A short description of series [28]: Toxicity in Syrian hamster infected with Leishmania infantum BCN150 promastigotes assessed as spleen weight at 40 mg/kg/day, po for 10 days formulated with 30% v/v cyclodextrin (reference value: 0.183 +/- 0.04 g). The format is organism-based, Mesocricetus auratus. The following applies: in vivo, 240 h.
Series [29] has as its system Leishmania infantum. The experiment in a line: Antileishmanial activity against Leishmania infantum amastigotes infected in Syrian hamster assessed as parasite load within liver at 40 mg/kg/day, po for 10 days formulated with 50% v/v cyclodextrin (reference value: 5000000.000 +/- 1673320.053/g). The format is functional.
A short description of series [30]: Plasma concentration in syrian hamster infected with Leishmania infantum BCN150 promastigote at 40 mg/kg/day, po for 10 days formulated with 30% v/v cyclodextrin. The format is ADME, organism-based, Mesocricetus auratus.
Series [31] can be described thus: Chemical stability of compound in PBS assessed as decrease in absorbance at 60 uM at pH 7 to 8 and 25 degC measured within 50 mins under dark conditions by UV-vis spectrophotometry analysis. The format is physicochemical. The settings on record: read-out: Drug degradation.

The structures appear in SMILES notation. Several values for one entry are separate records, joined by “and”; a condition that tells them apart may be missing. Equal entries are not always repeated. Activity calls are given as the source filed them. The rule behind the calls is not given here.

CYP2C9, sequence (P11712 whole entry): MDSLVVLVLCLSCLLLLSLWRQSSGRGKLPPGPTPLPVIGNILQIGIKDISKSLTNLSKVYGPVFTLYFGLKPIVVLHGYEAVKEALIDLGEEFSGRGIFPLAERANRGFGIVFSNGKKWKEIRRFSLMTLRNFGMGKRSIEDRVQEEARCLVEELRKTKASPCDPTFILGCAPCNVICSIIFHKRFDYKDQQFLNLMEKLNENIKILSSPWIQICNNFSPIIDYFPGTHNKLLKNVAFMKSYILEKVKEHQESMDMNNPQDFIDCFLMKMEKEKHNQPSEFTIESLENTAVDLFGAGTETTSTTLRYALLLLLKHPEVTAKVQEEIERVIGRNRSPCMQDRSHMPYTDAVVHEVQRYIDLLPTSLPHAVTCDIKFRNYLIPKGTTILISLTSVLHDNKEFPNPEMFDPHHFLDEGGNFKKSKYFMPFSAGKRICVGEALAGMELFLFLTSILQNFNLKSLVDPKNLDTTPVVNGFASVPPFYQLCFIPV

Take `CCCCCCCCCCCCCCCCOP(=O)([O-])OCC[N+](C)(C)C` [MILTEFOSINE]: the Activity in [1] is 244476.109 g⁻¹; in series [2] it was “Toxic”; in series [3] it was “Non-Toxic”; in series [4], “Non-Toxic”; in series [5] it was 1000000 g⁻¹; in series [7], “Non-Toxic”. For the same molecule, the Activity entry in series [9] is “Toxic”. In addition, the concentration at 240 h in [6] was found to be 59300 nM. The inhibition entry in series [8] is “Active”.

As to `COc1ccc2oc(-c3csc4ccccc34)c(O)c(=O)c2c1`, the Activity in [10] is 5.522 g; in [12], 4285714.286 g⁻¹; in series [13], “Non-Toxic”; in [14], <50%; in series [15], “Non-Toxic”; in series [16] it was “Non-Toxic”. In addition, the Activity result in [17] is “Non-Toxic”; in series [18] it was “Non-Toxic”; in series [24] it was “Non-Toxic”; in series [25], 50%; in series [26], “Non-Toxic”; in [28], 0.719 g. Moreover, in series [29], the Activity came to 4000000 g⁻¹. In [11], the inhibition at 10 µM was determined as 69%. Besides, the figures for the concentration at 240 h in series [19] and in series [30] were 38 nM and 76 nM, respectively. For the same molecule, the inhibition at 5 µM in series [20] worked out at 78%. For the same molecule, the inhibition at 0.5 h, 10 µM in series [21] is -10%. The AUC at 72 h in series [22] is 16.3 µM·h and 5280 ng·h/mL. Further, the remaining at 5 µM in series [23] lay in the range of 90 to 95%. The Cmax in series [27] is 1.96 µM and 630 ng/mL. Besides, the degraded at 50 min, 60 µM in [31] was found to be 80%.
